{"source": "patent US20240016874A1", "about": "“COMPOSITIONS AND METHODS FOR PREVENTING AND TREATING CORONAVIRUSES” (priority 2020, published 2024)", "system": "SARS-CoV-2-PP (614G, Delta, UK, Brazil variants) infecting ACE2 expression cells", "format": "cell-based"}
{"smiles": "CCCCCCCCCCCCCCCC(=O)O", "note": "[palmitic acid]", "values": [{"measurement": "difference of effect between variants", "value": "a difference between the Brazil variant and the other variants"}, {"measurement": "effect on variants when combined with Oleic acid or Linoleic acid", "value": "strongest inhibition on the Delta variant"}, {"measurement": "inhibition of SARS-CoV-2-PP infection", "value": "good inhibitor"}]}
{"smiles": "CC1=CC(=O)C(C(C)C)=CC1=O", "note": "[thymoquinone]", "values": [{"measurement": "inhibition of SARS-CoV-2-PP infection", "value": "good inhibitor"}]}
